Key:
Assay type in all cases: cell-based, human
IKKβ = experiment: EGF-induced IKKβ activation, immunoblotting; conditions: U87/EGFR cells; U73122 2 μM 30 min before EGF 100 ng/mL 12 h
Procedure: (§1) FIG. 58: PKCε downstream from PLCγ1, rather than TAK1, activates IKKβ and subsequently increases PKM2 expression. […] B: U87/EGFR cells were treated with TNFα (10 ng/mL) for the indicated time. C: U87/EGFR cells were treated with or without EGF (100 ng/mL) or TNFα (10 ng/mL) for 4 h. […] HIF1α was immunodepleted from the cell lysates by incubation with an anti-HIF1α antibody, which was followed by a ChIP assay with an anti-FLAG antibody for immunoprecipitation of FLAG-RelA and PCR analysis with PKM promoter-specific primers. […] F: 293T cells were transiently transfected with constitutively active (+) or kinase-dead (−) PKC mutants. […] H, I: 293T cells were transiently transfected with the indicated plasmids.

PKM2 expression = experiment: EGF-induced PKM2 upregulation, immunoblotting; conditions: U87/EGFR cells; pretreatment before EGF 100 ng/mL 12 h; AG1478 1 μM, cycloheximide 200 μg/mL, Bis-I 2 μM, Go6976 2 μM, NF-κB activation inhibitor II 7 μM, AKT inhibitor 10 μM, TBB 50 μM, U73122 2 μM
Procedure: FIG. 56: EGFR activation results in upregulation of PKM2 expression. A-D: Immunoblotting analyses were performed with or without the indicated antibodies. A: The indicated cell lines were treated with EGF (100 ng/mL) for 12 h. B: U87 cells were stably transfected with plasmids expressing EGFR or EGFRvIII. […] D: U87/EGFR cells were pretreated with or without cycloheximide (CHX) (200 μg/mL) for 30 min before EGF (100 ng/mL) treatment for 12 h. […] The relative mRNA levels of PKM2 and PKM1 were normalized to the levels of untreated cells and β-actin mRNA. Data represent the mean±SD of three independent experiments.
FIG. 57: EGF increases PKM2 expression in a PKC- and NF-κB-dependent manner. A-D, H: Immunoblotting analyses were performed with the indicated antibodies. […] ChIP assay was performed with an anti-RelA antibody for immunoprecipitation, followed by PCR with PKM promoter-specific primers. F: An oligonucleotide containing the putative WT or mutated NF-κB binding sequence was labeled using [γ-^32P] ATP and T4 polynucleotide kinase. […] Samples were subjected to 5% polyacrylamide gel electrophoresis, and the dried gel was exposed to x-ray film. […] The relative levels of luciferase activity were normalized to the levels of untreated cells and to the levels of luciferase activity of the Renilla control plasmid. Data represent the mean±standard deviation of three independent experiments.
as §1

PTBP1 = PTBP1 protein expression upon EGF stimulation; conditions: U251 cells; NF-κB activation inhibitor II 7 μM 30 min before EGF 100 ng/mL 8 h
Procedure: FIG. 64: EGF increases PKM2 expression in a RelA- and PTBP1-dependent manner. […] Data represent the mean±standard deviation of three independent experiments. […] Immunoblotting analyses were performed with the indicated antibodies. C: RelA deficiency inhibits EGF-increased mRNA levels of PKM2, but not of PKM1. mRNA expression levels of PKM2 and PKM1 in RelA^+/+ and RelA^−/− fibroblasts treated with or without EGF (100 ng/mL) for 8 h were measured by real-time quantitative RT-PCR analysis. β-actin mRNA from the same cDNA library was amplified as a control. The relative mRNA levels of PKM2 (left panel) and PKM1 (right panel) were normalized to the levels of untreated cells and β-actin mRNA. Data represent the mean±SD of three independent experiments. D: PTBP1 depletion blocked EGF-induced PKM2 mRNA expression. […] The relative mRNA levels of PKM2 and PKM1 were normalized to the levels of untreated cells and β-actin mRNA. Data represent the mean±SD of three independent experiments. […] U87/EGFR cells transiently expressing a luciferase reporter vector containing the IκBα promoter were treated with or without TNFα (10 ng/mL) or EGF (100 ng/mL) for 8 h. The relative levels of luciferase activity were normalized to the levels of untreated cells and to the levels of luciferase activity of the Renilla control plasmid. Data represent the mean±standard deviation of three independent experiments.

NF-κB = experiment: TNFα-induced, NF-κB-dependent IκBα promoter luciferase reporter; conditions: U87/EGFR cells; NF-κB activation inhibitor II 7 μM 30 min before TNFα 10 ng/mL 8 h
Procedure: FIG. 63: PKC, NF-κB, PI3-K, and CK2 are inhibited by their inhibitors. A, B: U87/EGFR cells were treated with Bis-I (2 μM) (A) or Go6976 (2 μM) (B) for 30 min before 12-O-tetradecanoylphorbol-13-acetate (TPA) ([…]) for 8 h. Immunoblotting analyses were performed with the indicated antibodies. C: U87/EGFR cells transiently expressing a luciferase reporter vector containing the IκBα promoter were pretreated with or without NF-κB activation inhibitor II (7 μM) for 30 min before TNFα (10 ng/mL) for 8 h. The relative levels of luciferase activity were normalized to the levels of untreated cells and to the levels of luciferase activity of the Renilla control plasmid. Data represent the mean±standard deviation of three independent experiments. […] Immunoblotting analyses were performed with the indicated antibodies.
The luciferase reporter vector pGL3-promoter containing either the WT or a mutated PKM promoter fragment or a luciferase reporter vector containing the IκBα promoter was transfected into U87/EGFR cells, RelA+/+, or RelA−/− fibroblasts seeded in 24-well plates at 1.5×10^4 cells/well. Twelve hours after transfection, the medium was replaced with 0.1% serum for another 12-24 h, and EGF (100 ng/mL) was added 12 h before harvesting. […] cell extract were used for measuring luciferase activity. […]

TNFα-induced and NF-κB-dependent IκBα promoter activation (NF-κB)	SMILES	EGF-induced IKKβ activation (IKKβ)	EGF-induced PKM2 upregulation/expression (PKM2 expression)	PTBP1 protein expression (PTBP1)
–	COc1ccc2c(c1)CC[C@@H]1[C@@H]2CC[C@]2(C)[C@@H](NCCCCCCN3C(=O)C=CC3=O)CC[C@@H]12 [U73122]	abrogated	abrogated	–
successfully blocked	Cc1ccc(NCCCc2ccccc2)c(N)c1 [NF-κB activation inhibitor II]	–	largely abrogated	not affected

— patent publication US20150073033A1, “BIOMARKERS FOR CANCER CHARACTERIZATION AND TREATMENT” (Board of Regents, The University of Texas System, priority 2011, published 2015)
